Experimental findings from EP1247803A2, “Indolinone compounds suitable for modulation of protein kinases” (Sugen, Inc., priority 1996, dated 1998) are described below.

One experiment relates to MET. Kind of experiment: MET biochemical kinase assay. Further details: species or system human; concentration or dose not given beside the values. Put shortly:
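Capture ELISA: anti-rabbit Fc coat, rabbit anti-MET cytoplasmic domain pAb, lysate MET captured, washed. Compound + kinase buffer (ATP, divalent metals). Readout anti-pTyr-HRP/TMB, colorimetric.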

For another experiment, the target named is PDGF-R (Homo sapiens, UniProt P09619). Kind of experiment: PDGF-R ELISA. In kind it is cell-based. From the text: A PDGF-R ELISA is described in International Patent Publication No. WO 96/40116, published December 19, 1996 by Tang et al.
PDGF-R, sequence (P09619 33-1106, species assumed): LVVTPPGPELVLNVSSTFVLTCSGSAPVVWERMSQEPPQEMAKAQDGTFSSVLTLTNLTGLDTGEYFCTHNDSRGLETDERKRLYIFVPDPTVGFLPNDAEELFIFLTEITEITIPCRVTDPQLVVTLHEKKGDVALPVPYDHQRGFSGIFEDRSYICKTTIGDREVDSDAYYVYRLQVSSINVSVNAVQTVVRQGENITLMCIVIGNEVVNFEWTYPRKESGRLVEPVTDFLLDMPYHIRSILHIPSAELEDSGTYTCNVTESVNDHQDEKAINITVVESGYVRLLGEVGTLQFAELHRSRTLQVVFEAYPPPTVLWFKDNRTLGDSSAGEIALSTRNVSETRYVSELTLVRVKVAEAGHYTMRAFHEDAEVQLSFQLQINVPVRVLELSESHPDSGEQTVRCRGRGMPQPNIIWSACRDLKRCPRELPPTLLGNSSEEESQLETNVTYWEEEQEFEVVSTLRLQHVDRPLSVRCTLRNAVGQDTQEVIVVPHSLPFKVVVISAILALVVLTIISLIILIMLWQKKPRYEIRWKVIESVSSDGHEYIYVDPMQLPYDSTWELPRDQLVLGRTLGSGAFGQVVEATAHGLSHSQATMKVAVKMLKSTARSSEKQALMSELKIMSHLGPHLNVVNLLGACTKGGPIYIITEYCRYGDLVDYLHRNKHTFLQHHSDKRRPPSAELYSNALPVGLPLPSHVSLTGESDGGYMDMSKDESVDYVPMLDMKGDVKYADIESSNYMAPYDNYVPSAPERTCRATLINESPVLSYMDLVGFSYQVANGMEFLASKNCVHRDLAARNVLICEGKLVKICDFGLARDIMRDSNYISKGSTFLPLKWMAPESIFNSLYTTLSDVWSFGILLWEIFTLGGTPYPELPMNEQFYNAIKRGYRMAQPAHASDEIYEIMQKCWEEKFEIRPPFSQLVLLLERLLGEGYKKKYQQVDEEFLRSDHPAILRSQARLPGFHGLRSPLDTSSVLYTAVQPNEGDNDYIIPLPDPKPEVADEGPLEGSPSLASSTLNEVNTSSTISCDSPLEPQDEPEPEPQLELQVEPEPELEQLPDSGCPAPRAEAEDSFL
In general terms: An ELISA detects its analyte on a solid surface through an enzyme-linked reagent.

For another experiment, the target named is T1, FLK-1 receptor (Mus musculus, UniProt P35918).
T1 construct: expressed in transfected cells; host or cells: NIH3T3 C7#3
T1 sequence (P35918 20-1345): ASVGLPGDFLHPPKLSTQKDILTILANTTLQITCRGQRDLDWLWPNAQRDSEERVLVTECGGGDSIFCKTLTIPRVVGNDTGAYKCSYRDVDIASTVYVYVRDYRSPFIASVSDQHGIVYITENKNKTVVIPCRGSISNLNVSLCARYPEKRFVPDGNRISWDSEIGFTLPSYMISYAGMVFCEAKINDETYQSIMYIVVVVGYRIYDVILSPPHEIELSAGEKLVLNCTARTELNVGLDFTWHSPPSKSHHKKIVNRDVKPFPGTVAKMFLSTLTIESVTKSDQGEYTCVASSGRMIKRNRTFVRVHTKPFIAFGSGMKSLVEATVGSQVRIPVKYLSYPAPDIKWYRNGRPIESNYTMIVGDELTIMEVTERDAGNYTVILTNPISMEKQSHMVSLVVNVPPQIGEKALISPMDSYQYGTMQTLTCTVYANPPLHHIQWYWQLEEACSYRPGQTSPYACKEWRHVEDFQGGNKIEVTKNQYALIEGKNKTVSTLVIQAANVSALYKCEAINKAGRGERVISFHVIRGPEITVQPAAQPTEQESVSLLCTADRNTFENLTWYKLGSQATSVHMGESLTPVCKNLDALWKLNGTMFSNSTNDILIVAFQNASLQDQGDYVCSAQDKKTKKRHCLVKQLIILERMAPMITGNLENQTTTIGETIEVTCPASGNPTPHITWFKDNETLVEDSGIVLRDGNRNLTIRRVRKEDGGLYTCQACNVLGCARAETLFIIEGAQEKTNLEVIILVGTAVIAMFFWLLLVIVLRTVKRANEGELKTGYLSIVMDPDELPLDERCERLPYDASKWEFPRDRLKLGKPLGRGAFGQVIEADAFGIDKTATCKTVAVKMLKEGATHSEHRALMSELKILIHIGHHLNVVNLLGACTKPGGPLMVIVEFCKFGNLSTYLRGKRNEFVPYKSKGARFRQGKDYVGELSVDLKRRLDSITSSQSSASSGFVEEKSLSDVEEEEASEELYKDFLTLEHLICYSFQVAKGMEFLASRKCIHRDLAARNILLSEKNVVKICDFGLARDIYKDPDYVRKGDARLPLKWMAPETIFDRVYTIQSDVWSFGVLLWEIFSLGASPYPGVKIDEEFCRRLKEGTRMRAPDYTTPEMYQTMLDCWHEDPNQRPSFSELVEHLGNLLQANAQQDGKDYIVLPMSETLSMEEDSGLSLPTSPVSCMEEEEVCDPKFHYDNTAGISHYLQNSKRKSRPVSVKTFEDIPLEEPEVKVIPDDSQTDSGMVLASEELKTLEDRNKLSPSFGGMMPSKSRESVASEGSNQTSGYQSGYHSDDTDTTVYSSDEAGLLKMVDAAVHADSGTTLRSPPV
As to the kind of experiment: FLK-1 ELISA (kinase activity of the FLK-1 receptor in FLK-1/NIH3T3 cells, VEGF stimulated). The class given is cell-based. The method in brief:
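NIH3T3 C7#3 cells expressing FLK-1 were seeded at 25.000 cells/well, serum-starved overnight in 0.1% FBS, then treated with compound for two hours at 37°C (final DMSO 0.5%) before VEGF stimulation. Receptor was captured on anti-rabbit IgG-coated ELISA plates bearing affinity-purified anti-FLK-1 antiserum.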

Structures are written as SMILES.

Turning to `O=C1Nc2ccc(S(=O)(=O)N3CCOCC3)cc2C1=Cc1cccc(F)c1O` [10734/F08], the “Met Kinase % Inhibition” value with MET came out at 66.3%. For the same compound, the “PDGF Kinase %Inhibition” value on PDGF-R is on record as -6.0%. The “Fik Kinase %Inhibition” value at FLK-1 receptor came out at 4.8%.

As to `O=C1Nc2ccc(S(=O)(=O)N3CCOCC3)cc2C1=Cc1ccc(O)c(Br)c1` [10734/F09], the “Met Kinase % Inhibition” value with MET is 93.9%. The “PDGF Kinase %Inhibition” value on PDGF-R was -17.4%. Also, the “Fik Kinase %Inhibition” value on FLK-1 receptor is reported as -3.7%.

For `O=C1Nc2ccc(CCCl)cc2C1=Cc1ccc([N+](=O)[O-])cc1` [10734/G06], in the experiment with MET, the “Met Kinase % Inhibition” value is reported as 43.1%. In addition, on PDGF-R, the “PDGF Kinase %Inhibition” value is given as -18.8%. For the same compound, on FLK-1 receptor, the “Fik Kinase %Inhibition” value was found to be 16.5%.

Take `O=C1Nc2ccc(CCCl)cc2C1=Cc1ccc(O)c(Br)c1` [10734/G09]: the “Met Kinase % Inhibition” value with MET came to 84.7%. Also, the “PDGF Kinase %Inhibition” value at PDGF-R is reported as -7.7%. In addition, the “Fik Kinase %Inhibition” value on FLK-1 receptor is recorded as 8.5%.

Take `O=C1Nc2ccc(CCCl)cc2C1=Cc1cccc(F)c1O` [10734/G08]: the “Met Kinase % Inhibition” value in the experiment with MET came out at 82.2%. Also, the “PDGF Kinase %Inhibition” value at PDGF-R was found to be 0.2%. Further, the “Fik Kinase %Inhibition” value on FLK-1 receptor was found to be 11.6%.

Regarding `O=C1Nc2ccc(S(=O)(=O)Nc3ccc(C(F)(F)F)cc3)cc2C1=Cc1ccc([N+](=O)[O-])cc1` [10734/E06], the “Met Kinase % Inhibition” value with MET stood at 50.6%. Moreover, the “PDGF Kinase %Inhibition” value on PDGF-R was 13.5%. Moreover, the “Fik Kinase %Inhibition” value on FLK-1 receptor is 28.4%.

On to `CC(C)(C)c1ccc(C=C2C(=O)Nc3ccc(S(=O)(=O)N4CCOCC4)cc32)cc1` [10734/F10], for which the “Met Kinase % Inhibition” value in the experiment on MET is 44.8%. Moreover, at PDGF-R, the “PDGF Kinase %Inhibition” value came to 25.8%. At FLK-1 receptor, the “Fik Kinase %Inhibition” value was 14.8%.

`COc1cc(OC)c(C=C2C(=O)Nc3ccc(Br)c(C)c32)c(OC)c1` [10719/C06]: the “Met Kinase % Inhibition” value in the experiment on MET worked out at 18.4%. For the same compound, the “Fik Kinase %Inhibition” value at FLK-1 receptor amounted to 47.7%.

For `Cc1c(Br)ccc2c1C(=Cc1ccc(N(C)C)cc1)C(=O)N2` [10719/C08], the “Met Kinase % Inhibition” value with MET stood at 57.5%. Also, at FLK-1 receptor, the “Fik Kinase %Inhibition” value was determined as 15.0%.

`O=C1Nc2c(Br)cc(Br)cc2C1=Cc1ccc(O)c(O)c1` [10719/A03]: the “Met Kinase % Inhibition” value in the experiment with MET is on record as 84.1%. The “Fik Kinase %Inhibition” value on FLK-1 receptor came out at 3.9%.

On to `O=C1Nc2ccc(I)cc2C1=Cc1ccc(F)cc1` [10717/B05], for which, in the experiment with MET, the “Met Kinase % Inhibition” value was found to be 87.4%. Moreover, on FLK-1 receptor, the “Fik Kinase %Inhibition” value was determined as 1.0%.

Regarding `COc1ccc(C=C2C(=O)Nc3c(Br)cc(Br)cc32)c(OC)c1` [10719/A04], the “Met Kinase % Inhibition” value with MET was 22.9%. Moreover, at FLK-1 receptor, the “Fik Kinase %Inhibition” value was found to be 19.2%.

Regarding `CCOC(=O)CCc1c(C(=O)OCC)[nH]c(C=C2C(=O)Nc3ccc(S(=O)(=O)N4CCOCC4)cc32)c1CC(=O)OCC` [10718/F05], in the experiment on MET, the “Met Kinase % Inhibition” value stood at 53.7%. Besides, the “Fik Kinase %Inhibition” value at FLK-1 receptor is listed as 19.5%.

As to `O=C1Nc2ccc(I)cc2C1=Cc1cccs1` [10717/B03], in the experiment with MET, the “Met Kinase % Inhibition” value came to 90.5%. In addition, the “Fik Kinase %Inhibition” value at FLK-1 receptor is reported as -8.8%.

`COc1cc(Br)c(O)c(C=C2C(=O)Nc3ccc(S(=O)(=O)N4CCOCC4)cc32)c1` [10718/F03]: the “Met Kinase % Inhibition” value with MET was 87.9%. Further, the “Fik Kinase %Inhibition” value at FLK-1 receptor is reported as -0.2%.

As to `O=C1Nc2c(Br)cc(Br)cc2C1=Cc1ccc(F)cc1Cl` [10719/A09], in the experiment on MET, the “Met Kinase % Inhibition” value was determined as 47.0%. Moreover, the “Fik Kinase %Inhibition” value at FLK-1 receptor amounted to 12.3%.

Regarding `Cc1c(Br)ccc2c1C(=Cc1ccc(O)cc1)C(=O)N2` [10719/C07], the “Met Kinase % Inhibition” value in the experiment on MET is 7.7%. On FLK-1 receptor, the “Fik Kinase %Inhibition” value was 31.2%.

For `O=C1Nc2ccc(CCCl)cc2C1=Cc1ccc([N+](=O)[O-])o1` [10718/G11], the “Met Kinase % Inhibition” value in the experiment with MET was 3.0%. Also, the “Fik Kinase %Inhibition” value on FLK-1 receptor worked out at 15.6%.

As to `O=C1Nc2c(Br)cc(Br)cc2C1=Cc1cccc([N+](=O)[O-])c1` [10719/A10], in the experiment on MET, the “Met Kinase % Inhibition” value is on record as 13.4%. Besides, on FLK-1 receptor, the “Fik Kinase %Inhibition” value was determined as 10.9%.

On to `CCOc1ccc(C=C2C(=O)Nc3c(Br)cc(Br)cc32)cc1OC` [10719/A02], for which, in the experiment on MET, the “Met Kinase % Inhibition” value came out at 40.9%. Also, at FLK-1 receptor, the “Fik Kinase %Inhibition” value came out at 21.4%.
